Experimental data as given in article PMC9269301, “Phytochemical Analysis, Antioxidant, Antimicrobial, and Cytotoxic Activity of Different Extracts of Xanthoparmelia stenophylla Lichen from Stara Planina, Serbia” (Plants, 2022).
In brackets after ≈: the same amount, converted by molar mass. Where two headings read alike, the source gives them in different places.

Legend:
[1] = tested on: C. albicans (isolate); experiment: Microdilution with resazurin, antifungal; format: cell-based, Candida albicans; conditions: Candida albicans, antimycotics
Experimental: (§1) The tested methanol, acetone, and n-hexane extracts, as well as the component (usnic acid) of X. stenophylla, were dissolved in 10% dimethyl sulfoxide (DMSO) and then diluted into the nutrient liquid medium. DMSO was obtained from Acros Organics (Fair Lawn, NJ, USA). Resazurin was obtained from Alfa Aesar GmbH & Co. (KG, Karlsruhe, Germany).
(§2) The antimicrobial activity of the extracts and components was tested against 19 microorganisms. The experiment involved 15 strains of bacteria (i.e., 6 standard strains: Staphylococcus aureus ATCC 6538, Bacillus subtilis ATCC 6633, Proteus mirabilis ATCC 12453, Pseudomonas aeruginosa ATCC 27853, Klebsiella pneumoniae ATCC 70063, and Escherichia coli ATCC 25922; 9 isolates: Staphylococcus aureus, Escherichia coli, Salmonella enterica, Salmonella Typhimurium, Proteus mirabilis, Klebsiella pneumoniae, Pseudomonas aeruginosa, Bacillus subtilis, and Bacillus cereus). In addition, four fungal strains (i.e., two standard strains: Candida albicans ATCC 10231 and Aspergillus niger ATCC 16888; two isolates: Saccharomyces cerevisiae and Candida albicans) were tested. All isolates were a generous gift from the Institute of Public Health, Kragujevac. The other microorganisms were provided from the collection held by the Microbiology Laboratory Faculty of Science, University of Kragujevac.
(§3) The bacterial suspensions were prepared by the direct colony method. The turbidity of the initial suspension was adjusted using a densitometer (DEN-1, BioSan, Riga, Latvia). When adjusted to the turbidity of the 0.5 McFarland’s standard (Andrews, 2005) the bacteria suspension contained approximately 10^8 colony-forming units (CFU)/mL, and the suspension of yeast contained 10^6 CFU/mL; 1:100 dilutions of the initial suspension were additionally prepared in sterile 0.85% saline. The suspensions of fungal spores were prepared by gentle stripping of spores from slopes with growing mycelia. The resulting suspensions were 1:1000 diluted in sterile 0.85% saline.
(§4) Antimicrobial activity was tested by determining the minimum inhibitory concentrations (MICs) and minimum microbicidal concentrations (MBCs) using the microdilution plate method with resazurin [56]. The 96-well plates were prepared by dispensing 100 μL of Mueller–Hinton broth for bacteria and Sabouard broth for fungi into each well. A 10 μL aliquot from the stock solution of the tested extract or component was added to the first row of the plate. Then, two-fold serial dilutions were performed using a multichannel pipette. The obtained concentration range was from 10 to 0.08 mg/mL. The method is described in detail in [76].
(§5) Each test included growth control and sterility control.
(§6) Minimum microbicidal concentrations were determined by plating 10 μL of samples from wells where no indicator color change or no mycelia growth was recorded on a nutrient agar medium. At the end of the incubation period, the lowest concentration with no growth (no colony) was defined as the minimum microbicidal concentration.

[2] = tested on: C. albicans ATCC 10231; experiment: Microdilution with resazurin, antifungal; format: cell-based, Candida albicans; conditions: Candida albicans, ATCC10231, antimycotics
Experimental: as §1, §2, §3, §4, §5, §6

[3] = tested on: A. niger ATCC 16888; experiment: Microdilution with resazurin, antifungal; format: cell-based, Aspergillus niger; conditions: Aspergillus niger, ATCC16888, antimycotics
Experimental: as §1, §2, §3, §4, §5, §6

[4] = tested on: P. aeruginosa biofilm; experiment: Antibiofilm activity (biofilm formation, crystal violet); format: cell-based, Pseudomonas aeruginosa; conditions: 48 h; for IC50: Pseudomonas aeruginosa, read-out: BIC50 (biofilm inhibitory concentration, 50% reduction of biofilm coverage)
Experimental: (§7) The ability of S. aureus ATCC 6538 and P. aeruginosa to form biofilms was assayed as described by O’Toole et al. with some modifications. Briefly, the tissue culture of 96-well microtiter plates (Sarstedt, Germany) were prepared by dispensing 100 µL of nutrient broth (i.e., Mueller–Hinton broth) into each well. Ten microliters of spore suspension (10^8 colony-forming units (CFU)/mL) was added into each row. […] Biofilms formed by adherent cells in 96-well microtiter plates were stained with crystal violet (0.1% w/v; Fluka AG, Buchs, Switzerland) and incubated at room temperature for 20 min. Excess stain was rinsed off by thorough washing with deionized water and then with […] of 96% ethanol. Optical densities (ODs) of stained adherent bacteria were determined with an enzyme-linked immunosorbent assay (ELISA) plate reader (RT-2100C, Rayto, Shenzhen, China) at a 630 nm wavelength. Only broth served as a control to check sterility and nonspecific binding of media. To compensate for background absorbance, OD readings from sterile medium, fixative, and dye were averaged and subtracted from all test values. All tests were performed in duplicate. The tissue culture of 96-well microtiter plates (Sarstedt, Nümbrecht, Germany) were prepared by dispensing 100 µL of nutrient broth (i.e., Mueller–Hinton broth) into each well. From the stock solution of the tested extracts or components (concentration: 20 mg/mL), 100 µL was added to the first row of the microtiter plate. Two-fold serial dilutions were then made using a multichannel pipette, following which 10 µL of fresh bacterial suspension was added to each well. The inoculated microtiter plates were incubated at 37 °C for 48 h. After incubation, the content of each well was gently removed by tapping the microtiter plates. […] Biofilms formed by adherent cells in 96-well microtiter plates were stained with crystal violet (0.1% w/v; Fluka AG, Switzerland) and incubated at room temperature for 20 min. Excess stain was rinsed off by thorough washing with deionized water and then with […] densities (ODs) of stained adherent bacteria were determined with an enzyme-linked immunosorbent assay (ELISA) plate reader at a 630 nm wavelength. […] Only broth or broth with extracts served as a control to check the sterility and nonspecific binding of media. To compensate for background absorbance, OD readings from sterile medium, extracts, fixative, and dye were averaged and subtracted from all test values. All tests were performed in duplicate.

[5] = tested on: S. aureus ATCC 6538 biofilm; experiment: as above; format: cell-based, Staphylococcus aureus; conditions: for IC50: Staphylococcus aureus, read-out: BIC50 (biofilm inhibitory concentration, 50% reduction of biofilm coverage)
Experimental: as §7

[6] = tested on: MRC-5 cells (nontransformed human lung fibroblast); experiment: MTT assay; format: cell-based; conditions: for GI50 / IC50: Homo sapiens; for GI50: MRC5, read-out: GI50 (50% growth inhibition); for IC50: MRC5, read-out: IC50
[7] = tested on: HeLa cells (cervical adenocarcinoma); experiment: MTT assay; format: cell-based, human; conditions: for TGI (total growth inhibition) / GI50 / IC50: HeLa; for GI50 / IC50: Homo sapiens; for GI50: read-out: GI50 (50% growth inhibition); for IC50: read-out: IC50; for SI (selectivity index): IC50 MRC-5 / IC50 HeLa
[8] = tested on: HCT 116 cells (colon cancer); experiment: MTT assay; format: cell-based, human; conditions: for GI50 / IC50: Homo sapiens; for GI50: read-out: GI50 (50% growth inhibition); for IC50: read-out: IC50
[9] = S. aureus ATCC 6538, 37 °C, 48 h

C[C@@H]1[C@H](O)[C@@H](C)/C=C/C=C/C=C/C=C/C=C/C=C/C=C/[C@H](O[C@@H]2O[C@H](C)[C@@H](O)[C@H](N)[C@@H]2O)C[C@@H]2O[C@](O)(C[C@@H](O)C[C@@H](O)[C@H](O)CC[C@@H](O)C[C@@H](O)CC(=O)O[C@H]1C)C[C@H](O)[C@H]2C(=O)O [AB, amphotericin B]
MFC ([1]; read-out: MFC): 1.95 µg/mL (≈ 2.11 µM) | MIC ([1]; read-out: MIC): 0.98 µg/mL (≈ 1.06 µM) | MFC ([2]; read-out: MFC): 1.95 µg/mL (≈ 2.11 µM) | MIC ([2]; read-out: MIC): 0.49 µg/mL (≈ 0.53 µM) | MFC ([3]; read-out: MFC): 0.98 µg/mL (≈ 1.06 µM) | MIC ([3]; read-out: MIC): 0.98 µg/mL (≈ 1.06 µM)

CO/N=C(\C(=O)N[C@@H]1C(=O)N2C(C(=O)O)=C(CSc3nc(=O)c(=O)[nH]n3C)CS[C@H]12)c1csc(N)n1 [CT, ceftriaxone]
BIC90 (biofilm inhibitory concentration, 90% reduction of biofilm coverage) ([4]; P. aeruginosa, 37 °C): >1000 µg/mL | IC50 ([4]; P. aeruginosa, 37 °C): 116 µg/mL (≈ 210 µM) | BIC90 (biofilm inhibitory concentration, 90% reduction of biofilm coverage) [5, 9]: >1000 µg/mL | IC50 ([5]; ATCC6538, S. aureus ATCC 6538, 37 °C, 48 h): 475 µg/mL (≈ 857 µM)

COc1cccc2c1C(=O)c1c(O)c3c(c(O)c1C2=O)C[C@@](O)(C(=O)CO)C[C@@H]3O[C@H]1C[C@H](N)[C@H](O)[C@H](C)O1 [DOX, doxorubicin]
GI50 ([6]; MRC-5, 24 h): < 0.1 µg/mL | GI50 ([6]; MRC-5, 48 h): < 0.1 µg/mL | GI50 ([6]; MRC-5, 72 h): < 0.1 µg/mL | IC50 ([6]; MRC-5, 24 h): 86.9 ± 17.2 µg/mL (≈ 160 µM) | IC50 ([6]; MRC-5, 48 h): 0.96 ± 0.1 µg/mL (≈ 1.77 µM) | IC50 ([6]; MRC-5, 72 h): 0.1 ± 0.05 µg/mL (≈ 0.184 µM) | TGI (total growth inhibition) ([6]; MRC-5, 24 h): 54.71 ± 4.65 µg/mL (≈ 101 µM) | TGI (total growth inhibition) ([6]; MRC-5, 48 h): 6.34 ± 2.90 µg/mL (≈ 11.7 µM) | TGI (total growth inhibition) ([6]; MRC-5, 72 h): 2.35 ± 0.35 µg/mL (≈ 4.32 µM) | TGI (total growth inhibition) ([7]; 24 h): <0.1 µg/mL | TGI (total growth inhibition) ([7]; 48 h): <0.1 µg/mL | TGI (total growth inhibition) ([7]; 72 h): <0.1 µg/mL | GI50 ([7]; 24 h): < 0.1 µg/mL | IC50 ([7]; 24 h): 22.9 ± 3.05 µg/mL (≈ 42.2 µM) | GI50 ([7]; 48 h): < 0.1 µg/mL | IC50 ([7]; 48 h): 1.04 ± 0.06 µg/mL (≈ 1.91 µM) | GI50 ([7]; 72 h): < 0.1 µg/mL | IC50 ([7]; 72 h): 0.14 ± 0.01 µg/mL (≈ 0.258 µM) | SI (selectivity index) ([7]; 24 h): 3.8 | SI (selectivity index) ([7]; 48 h): 0.92 | SI (selectivity index) ([7]; 72 h): 0.71 | TGI (total growth inhibition) ([8]; HCT 116, 24 h): <0.1 µg/mL | TGI (total growth inhibition) ([8]; HCT 116, 48 h): <0.1 µg/mL | TGI (total growth inhibition) ([8]; HCT 116, 72 h): <0.1 µg/mL | GI50 ([8]; HCT 116, 24 h): < 0.1 µg/mL | GI50 ([8]; HCT 116, 48 h): < 0.1 µg/mL | GI50 ([8]; HCT 116, 72 h): < 0.1 µg/mL | IC50 ([8]; HCT 116, 24 h): 153 ± 9.69 µg/mL (≈ 281 µM) | IC50 ([8]; HCT 116, 72 h): 0.41 ± 0.16 µg/mL (≈ 0.754 µM) | SI (selectivity index) ([8]; IC50 MRC-5 / IC50 HCT 116, 24 h): 0.57 | SI (selectivity index) ([8]; IC50 MRC-5 / IC50 HCT 116, 72 h): 0.24

CN[C@H](CC(C)C)C(=O)N[C@H]1C(=O)N[C@@H](CC(N)=O)C(=O)N[C@H]2C(=O)N[C@H]3C(=O)N[C@H](C(=O)N[C@H](C(=O)O)c4cc(O)cc(O)c4-c4cc3ccc4O)[C@H](O)c3ccc(c(Cl)c3)Oc3cc2cc(c3O[C@@H]2O[C@H](CO)[C@@H](O)[C@H](O)[C@H]2O[C@H]2C[C@](C)(N)[C@H](O)[C@H](C)O2)Oc2ccc(cc2Cl)[C@H]1O [VM, vancomycin]
BIC90 (biofilm inhibitory concentration, 90% reduction of biofilm coverage) ([4]; P. aeruginosa, 37 °C): >1000 µg/mL | IC50 [4]: 734 µg/mL (≈ 506 µM) | BIC90 (biofilm inhibitory concentration, 90% reduction of biofilm coverage) [5, 9]: >1000 µg/mL | IC50 ([5]; ATCC6538, 48 h): 62.6 µg/mL (≈ 43.2 µM)
